From the kinase profiling compilation of Christmann-Franck et al. (2016)

What was measured:
Test in all cases: radiometric filter-binding kinase assay, Kinase HotSpot
Conditions in all cases: compound 0.5 µM; ATP 10 µM
[1] = molecular target: ADRBK1 (human) (UniProt P25098)
[2] = molecular target: AKT2 (human) (UniProt P31751)
[3] = molecular target: AURKC (human) (UniProt Q9UQB9)
[4] = molecular target: BTK (human) (UniProt Q06187)
[5] = molecular target: CAMK2G (human) (UniProt Q13555)
[6] = molecular target: CAMKK1 (human) (UniProt Q8N5S9)
[7] = molecular target: CDK2 CCNA2 (human) (UniProt P24941+P20248)
[8] = molecular target: CDK2 CCNE1 (human) (UniProt P24941+P24864)
[9] = molecular target: CDK4 CCND3 (human) (UniProt P30281+P11802)
[10] = molecular target: CDK5 CDK5R1 p35 (human) (UniProt Q00535+Q15078)
[11] = molecular target: CHUK (human) (UniProt O15111)
[12] = molecular target: CSNK1D (human) (UniProt P48730)
[13] = molecular target: FLT1 (human) (UniProt P17948)
[14] = molecular target: FYN (human) (UniProt P06241)
[15] = molecular target: GSG2 (human) (UniProt Q8TF76)
[16] = molecular target: GSK3B (human) (UniProt P49841)
[17] = molecular target: HIPK1 (human) (UniProt Q86Z02)
[18] = molecular target: HIPK4 (human) (UniProt Q8NE63)
[19] = molecular target: IRAK1 (human) (UniProt P51617)
[20] = molecular target: ITK (human) (UniProt Q08881)
[21] = molecular target: JAK2 JH1 JH2 (human) (UniProt O60674)
[22] = molecular target: MAP3K10 (human) (UniProt Q02779)
[23] = molecular target: MAP3K14 (human) (UniProt Q99558)
[24] = molecular target: MAP3K5 (human) (UniProt Q99683)
[25] = molecular target: MAP4K4 (human) (UniProt O95819)
[26] = molecular target: MAPK13 (human) (UniProt O15264)
[27] = molecular target: MERTK (human) (UniProt Q12866)
[28] = molecular target: NEK2 (human) (UniProt P51955)
[29] = molecular target: NTRK1 (human) (UniProt P04629)
[30] = molecular target: NUAK2 (human) (UniProt Q9H093)
[31] = molecular target: PBK (human) (UniProt Q96KB5)
[32] = molecular target: PKN1 (human) (UniProt Q16512)
[33] = molecular target: PLK2 (human) (UniProt Q9NYY3)
[34] = molecular target: RAF1 (human) (UniProt P04049)
[35] = molecular target: SRPK2 (human) (UniProt P78362)
[36] = molecular target: SRPK3 (human) (UniProt Q9UPE1)
[37] = molecular target: STK4 (human) (UniProt Q13043)
[38] = molecular target: SYK (human) (UniProt P43405)
[39] = molecular target: TSSK1B (human) (UniProt Q9BXA7)
[40] = molecular target: TSSK2 (human) (UniProt Q96PF2)
[41] = molecular target: TYK2 JH1 catalytic (human) (UniProt P29597)
[42] = molecular target: ZAP70 (human) (UniProt P43403)

Sequence of CDK4 CCND3 (human) (P11802 whole entry, looked up): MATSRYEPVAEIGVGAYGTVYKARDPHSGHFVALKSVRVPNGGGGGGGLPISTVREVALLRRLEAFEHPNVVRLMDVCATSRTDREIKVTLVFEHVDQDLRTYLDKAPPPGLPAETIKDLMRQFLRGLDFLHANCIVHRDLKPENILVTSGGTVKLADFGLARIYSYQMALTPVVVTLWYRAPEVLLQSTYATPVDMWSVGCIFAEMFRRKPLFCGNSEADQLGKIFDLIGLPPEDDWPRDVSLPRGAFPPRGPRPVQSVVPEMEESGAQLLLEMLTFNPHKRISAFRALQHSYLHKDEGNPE
Sequence of CDK4 CCND3 (human) (P30281 whole entry, looked up): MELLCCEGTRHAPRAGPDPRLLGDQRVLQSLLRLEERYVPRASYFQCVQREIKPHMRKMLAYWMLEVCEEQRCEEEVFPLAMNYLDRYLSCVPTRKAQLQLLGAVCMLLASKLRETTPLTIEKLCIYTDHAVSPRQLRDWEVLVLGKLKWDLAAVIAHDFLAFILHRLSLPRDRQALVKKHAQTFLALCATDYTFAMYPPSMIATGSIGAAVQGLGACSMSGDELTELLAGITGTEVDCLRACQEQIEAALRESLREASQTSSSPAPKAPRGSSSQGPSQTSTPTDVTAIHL
Sequence of HIPK4 (human) (Q8NE63 whole entry, looked up): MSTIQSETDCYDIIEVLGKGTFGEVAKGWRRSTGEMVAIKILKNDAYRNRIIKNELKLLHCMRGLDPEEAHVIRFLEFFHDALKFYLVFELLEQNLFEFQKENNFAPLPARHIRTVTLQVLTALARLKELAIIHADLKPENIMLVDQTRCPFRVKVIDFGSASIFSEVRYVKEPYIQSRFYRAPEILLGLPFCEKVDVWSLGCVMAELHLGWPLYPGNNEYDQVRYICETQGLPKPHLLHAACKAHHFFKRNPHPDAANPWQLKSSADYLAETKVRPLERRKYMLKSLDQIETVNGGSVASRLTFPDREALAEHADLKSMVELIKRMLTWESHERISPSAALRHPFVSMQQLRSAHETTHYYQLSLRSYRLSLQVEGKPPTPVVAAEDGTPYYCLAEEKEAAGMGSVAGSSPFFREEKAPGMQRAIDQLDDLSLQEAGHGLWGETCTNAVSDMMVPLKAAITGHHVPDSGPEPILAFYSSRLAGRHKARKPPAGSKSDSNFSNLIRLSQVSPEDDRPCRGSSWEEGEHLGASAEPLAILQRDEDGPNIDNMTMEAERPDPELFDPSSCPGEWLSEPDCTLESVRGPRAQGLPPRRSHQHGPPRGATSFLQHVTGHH
Sequence of MAP3K5 (human) (Q99683 whole entry, looked up): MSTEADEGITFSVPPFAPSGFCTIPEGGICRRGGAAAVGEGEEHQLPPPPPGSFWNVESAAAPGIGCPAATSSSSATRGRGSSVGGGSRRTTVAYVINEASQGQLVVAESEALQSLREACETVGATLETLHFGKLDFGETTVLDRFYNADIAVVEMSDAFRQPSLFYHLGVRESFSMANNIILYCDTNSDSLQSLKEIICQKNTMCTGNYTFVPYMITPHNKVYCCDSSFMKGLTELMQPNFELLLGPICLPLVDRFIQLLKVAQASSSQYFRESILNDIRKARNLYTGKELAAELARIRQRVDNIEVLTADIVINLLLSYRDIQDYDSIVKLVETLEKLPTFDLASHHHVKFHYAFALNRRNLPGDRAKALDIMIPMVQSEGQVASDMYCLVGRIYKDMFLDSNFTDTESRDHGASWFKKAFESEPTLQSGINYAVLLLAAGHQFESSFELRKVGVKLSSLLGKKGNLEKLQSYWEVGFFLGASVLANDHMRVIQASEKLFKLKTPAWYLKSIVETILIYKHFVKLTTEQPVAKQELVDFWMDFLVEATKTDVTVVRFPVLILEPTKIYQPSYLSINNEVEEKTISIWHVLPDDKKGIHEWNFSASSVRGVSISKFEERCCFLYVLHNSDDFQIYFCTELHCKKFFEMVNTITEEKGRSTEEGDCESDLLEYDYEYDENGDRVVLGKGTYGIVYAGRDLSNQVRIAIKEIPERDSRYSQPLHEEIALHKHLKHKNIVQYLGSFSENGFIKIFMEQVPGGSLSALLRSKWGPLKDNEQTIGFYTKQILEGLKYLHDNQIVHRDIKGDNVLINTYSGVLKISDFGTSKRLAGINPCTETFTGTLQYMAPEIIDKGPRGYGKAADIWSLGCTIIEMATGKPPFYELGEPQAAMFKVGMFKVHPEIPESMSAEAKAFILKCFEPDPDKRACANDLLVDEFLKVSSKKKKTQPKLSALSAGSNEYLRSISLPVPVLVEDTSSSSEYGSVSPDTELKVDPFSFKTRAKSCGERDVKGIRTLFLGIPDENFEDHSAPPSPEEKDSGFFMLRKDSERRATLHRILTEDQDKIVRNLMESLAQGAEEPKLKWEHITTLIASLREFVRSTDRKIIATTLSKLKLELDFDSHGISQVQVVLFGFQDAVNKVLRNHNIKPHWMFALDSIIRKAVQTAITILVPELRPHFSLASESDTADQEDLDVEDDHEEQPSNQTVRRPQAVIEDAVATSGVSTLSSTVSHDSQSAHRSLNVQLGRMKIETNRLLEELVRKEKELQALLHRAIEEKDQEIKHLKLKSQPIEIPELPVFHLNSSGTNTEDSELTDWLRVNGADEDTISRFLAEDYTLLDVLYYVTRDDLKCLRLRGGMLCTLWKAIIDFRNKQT
Sequence of CSNK1D (human) (P48730 whole entry, looked up): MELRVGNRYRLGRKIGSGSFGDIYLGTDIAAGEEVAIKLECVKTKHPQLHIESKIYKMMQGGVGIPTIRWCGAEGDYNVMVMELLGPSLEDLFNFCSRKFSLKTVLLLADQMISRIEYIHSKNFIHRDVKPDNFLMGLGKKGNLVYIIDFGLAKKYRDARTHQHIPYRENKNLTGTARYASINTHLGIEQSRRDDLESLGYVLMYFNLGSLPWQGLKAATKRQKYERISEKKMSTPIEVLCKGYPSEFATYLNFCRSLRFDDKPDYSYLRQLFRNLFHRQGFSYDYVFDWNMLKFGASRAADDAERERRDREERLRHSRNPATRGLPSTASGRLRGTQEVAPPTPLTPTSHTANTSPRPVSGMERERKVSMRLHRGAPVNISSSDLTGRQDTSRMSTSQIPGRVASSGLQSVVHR
Sequence of SRPK2 (human) (P78362 whole entry, looked up): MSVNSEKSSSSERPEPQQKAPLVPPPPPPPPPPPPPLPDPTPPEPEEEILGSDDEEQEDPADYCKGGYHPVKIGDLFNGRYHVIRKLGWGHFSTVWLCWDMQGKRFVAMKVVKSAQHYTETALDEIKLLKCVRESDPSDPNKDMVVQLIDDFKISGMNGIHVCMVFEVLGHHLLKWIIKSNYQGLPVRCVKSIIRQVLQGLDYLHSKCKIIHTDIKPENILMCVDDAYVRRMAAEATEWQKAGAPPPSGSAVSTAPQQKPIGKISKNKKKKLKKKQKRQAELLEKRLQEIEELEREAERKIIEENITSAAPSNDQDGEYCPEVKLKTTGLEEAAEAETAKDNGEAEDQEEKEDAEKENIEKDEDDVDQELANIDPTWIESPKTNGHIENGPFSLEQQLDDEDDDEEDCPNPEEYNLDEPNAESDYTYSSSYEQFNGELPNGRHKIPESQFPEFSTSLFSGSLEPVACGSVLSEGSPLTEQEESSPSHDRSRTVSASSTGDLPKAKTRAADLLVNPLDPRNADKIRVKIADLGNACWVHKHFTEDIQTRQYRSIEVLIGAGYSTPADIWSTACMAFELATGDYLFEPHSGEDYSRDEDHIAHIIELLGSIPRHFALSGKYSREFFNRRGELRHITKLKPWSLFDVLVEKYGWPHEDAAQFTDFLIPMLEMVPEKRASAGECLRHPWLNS
Sequence of SRPK3 (human) (Q9UPE1 whole entry, looked up): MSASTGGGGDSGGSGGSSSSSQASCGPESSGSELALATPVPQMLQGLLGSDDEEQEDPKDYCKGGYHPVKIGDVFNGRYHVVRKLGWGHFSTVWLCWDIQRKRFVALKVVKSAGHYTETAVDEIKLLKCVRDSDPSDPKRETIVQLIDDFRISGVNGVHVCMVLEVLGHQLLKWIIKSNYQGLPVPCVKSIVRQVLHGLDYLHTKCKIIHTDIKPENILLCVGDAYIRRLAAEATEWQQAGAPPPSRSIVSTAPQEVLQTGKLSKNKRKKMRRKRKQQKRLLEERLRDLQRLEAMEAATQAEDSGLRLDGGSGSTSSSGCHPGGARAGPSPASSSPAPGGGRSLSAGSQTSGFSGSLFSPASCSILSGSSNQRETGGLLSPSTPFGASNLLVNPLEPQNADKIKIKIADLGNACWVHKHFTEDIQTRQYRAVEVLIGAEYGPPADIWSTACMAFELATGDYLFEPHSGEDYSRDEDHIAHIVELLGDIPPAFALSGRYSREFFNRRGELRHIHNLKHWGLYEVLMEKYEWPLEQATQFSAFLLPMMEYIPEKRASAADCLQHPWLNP
Sequence of NUAK2 (human) (Q9H093 whole entry, looked up): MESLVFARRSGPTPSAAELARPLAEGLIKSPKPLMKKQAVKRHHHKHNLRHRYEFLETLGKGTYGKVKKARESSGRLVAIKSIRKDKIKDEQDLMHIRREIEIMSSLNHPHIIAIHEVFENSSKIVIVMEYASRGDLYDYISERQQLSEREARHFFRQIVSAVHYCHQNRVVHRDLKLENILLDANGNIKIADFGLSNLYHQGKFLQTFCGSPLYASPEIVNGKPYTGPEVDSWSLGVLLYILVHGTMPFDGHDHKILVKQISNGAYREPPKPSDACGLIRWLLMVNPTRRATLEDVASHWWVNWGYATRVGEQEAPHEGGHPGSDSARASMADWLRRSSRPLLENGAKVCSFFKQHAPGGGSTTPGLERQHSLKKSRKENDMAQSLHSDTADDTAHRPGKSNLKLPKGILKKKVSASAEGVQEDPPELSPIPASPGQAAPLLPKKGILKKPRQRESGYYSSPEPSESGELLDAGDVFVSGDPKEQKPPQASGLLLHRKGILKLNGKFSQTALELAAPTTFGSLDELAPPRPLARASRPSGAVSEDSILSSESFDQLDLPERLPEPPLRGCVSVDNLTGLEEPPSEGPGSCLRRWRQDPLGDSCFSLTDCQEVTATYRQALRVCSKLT

Work on CCN(CC)CCCCN1c2ccccc2Oc2ccc(Cl)cc21 yielded a residual activity [1] of 96.5%, a residual activity [2] of 101% and a residual activity [3] of 99.3%. It also gave a residual activity [4] of 99.2%, a residual activity [5] of 104% and a residual activity [6] of 116%. It also gave a residual activity [7] of 98.7%, a residual activity [8] of 89.4% and a residual activity [9] of 102%. For the same compound, the residual activity [10] was 90.3%, the residual activity [11] was 98.8% and the residual activity [12] was 105%. The residual activity [13] was 94.3%, the residual activity [14] was 107% and the residual activity [15] was 104%. The residual activity [16] was 113%, the residual activity [17] was 106% and the residual activity [18] was 99.2%. The residual activity [19] was 118%, the residual activity [20] was 101% and the residual activity [21] was 104%. It also gave a residual activity [22] of 102%, a residual activity [23] of 95.6% and a residual activity [24] of 106%. It also gave a residual activity [25] of 104%, a residual activity [26] of 94.3% and a residual activity [27] of 95.5%. It also gave a residual activity [28] of 101%, a residual activity [29] of 99.8% and a residual activity [30] of 90.9%. The residual activity [31] was 105%, the residual activity [32] was 89.6% and the residual activity [33] was 103%. For the same compound, the residual activity [34] was 105%, the residual activity [35] was 109% and the residual activity [36] was 104%. The residual activity [37] was 98.9%, the residual activity [38] was 97.6% and the residual activity [39] was 96.7%. It also gave a residual activity [40] of 103%, a residual activity [41] of 96.7% and a residual activity [42] of 91.1%.

O=C1Nc2ccccc2/C1=C1/Nc2ccccc2/C1=N\OCCC(O)CO (stereo not drawn) gave a residual activity [1] of 101%, a residual activity [2] of 90.1% and a residual activity [3] of 43.2%. The residual activity [4] was 24.1%, the residual activity [5] was 35.3% and the residual activity [6] was 26.2%. The residual activity [7] was 15.5%, the residual activity [8] was 23.1% and the residual activity [9] was 66.1%. It also gave a residual activity [10] of 14.3%, a residual activity [11] of 96.6% and a residual activity [12] of 52.9%. It also gave a residual activity [13] of 51%, a residual activity [14] of 13% and a residual activity [15] of 32.8%. It also gave a residual activity [16] of 12.6%, a residual activity [17] of 96% and a residual activity [18] of 108%. The residual activity [19] was 34.5%, the residual activity [20] was 34.8% and the residual activity [21] was 43.1%. It also gave a residual activity [22] of 86.9%, a residual activity [23] of 89% and a residual activity [24] of 91.2%. For the same compound, the residual activity [25] was 11.6%, the residual activity [26] was 94.8% and the residual activity [27] was 49.4%. It also gave a residual activity [28] of 114%, a residual activity [29] of 3.84% and a residual activity [30] of 55.1%. The residual activity [31] was 80.6%, the residual activity [32] was 49.9% and the residual activity [33] was 105%. For the same compound, the residual activity [34] was 100%, the residual activity [35] was 86.5% and the residual activity [36] was 59.5%. For the same compound, the residual activity [37] was 8.29%, the residual activity [38] was 38.6% and the residual activity [39] was 76.6%. For the same compound, the residual activity [40] was 96.2%, the residual activity [41] was 9.42% and the residual activity [42] was 97.8%.

For CN(C)C[C@H]1CCn2c(c(C3=C(c4cn(C)c5ccccc45)C(=O)NC3=O)c3ccccc32)C1, the residual activity [1] was 103%, the residual activity [2] was 92.6% and the residual activity [3] was 93.1%. It also gave a residual activity [4] of 103%, a residual activity [5] of 100% and a residual activity [6] of 116%. It also gave a residual activity [7] of 76.2%, a residual activity [8] of 64.4% and a residual activity [9] of 99.7%. The residual activity [10] was 85.4%, the residual activity [11] was 103% and the residual activity [12] was 101%. For the same compound, the residual activity [13] was 91.3%, the residual activity [14] was 92.8% and the residual activity [15] was 100%. The residual activity [16] was 11.2%, the residual activity [17] was 101% and the residual activity [18] was 95.7%. For the same compound, the residual activity [19] was 127%, the residual activity [20] was 94.9% and the residual activity [21] was 98.6%. For the same compound, the residual activity [22] was 102%, the residual activity [23] was 105% and the residual activity [24] was 107%. For the same compound, the residual activity [25] was 82.5%, the residual activity [26] was 117% and the residual activity [27] was 95.4%. For the same compound, the residual activity [28] was 106%, the residual activity [29] was 108% and the residual activity [30] was 121%. It also gave a residual activity [31] of 101%, a residual activity [32] of 7.06% and a residual activity [33] of 99.9%. It also gave a residual activity [34] of 96.6%, a residual activity [35] of 91.5% and a residual activity [36] of 100%. It also gave a residual activity [37] of 80.1%, a residual activity [38] of 99.6% and a residual activity [39] of 104%. The residual activity [40] was 97.1%, the residual activity [41] was 104% and the residual activity [42] was 105%.

CC(C)c1nn(-c2c(Cl)cccc2Cl)c2nc(Cc3ccc(OCCO)cc3)nc(O)c12 gave a residual activity [1] of 94.8%, a residual activity [2] of 92.4% and a residual activity [3] of 87.6%. For the same compound, the residual activity [4] was 100%, the residual activity [5] was 98.9% and the residual activity [6] was 100%. It also gave a residual activity [7] of 1.96%, a residual activity [8] of 8.6% and a residual activity [9] of 45.6%. The residual activity [10] was 9.64%, the residual activity [11] was 98.5% and the residual activity [12] was 97.1%. The residual activity [13] was 87.2%, the residual activity [14] was 102% and the residual activity [15] was 94.3%. The residual activity [16] was 47.1%, the residual activity [17] was 102% and the residual activity [18] was 94.7%. For the same compound, the residual activity [19] was 99.2%, the residual activity [20] was 98.6% and the residual activity [21] was 98.3%. For the same compound, the residual activity [22] was 90.3%, the residual activity [23] was 97.3% and the residual activity [24] was 119%. It also gave a residual activity [25] of 84.5%, a residual activity [26] of 104% and a residual activity [27] of 96.1%. For the same compound, the residual activity [28] was 97.7%, the residual activity [29] was 89% and the residual activity [30] was 91.7%. For the same compound, the residual activity [31] was 101%, the residual activity [32] was 97% and the residual activity [33] was 99.8%. For the same compound, the residual activity [34] was 95.8%, the residual activity [35] was 89.2% and the residual activity [36] was 92.9%. It also gave a residual activity [37] of 96.7%, a residual activity [38] of 98.6% and a residual activity [39] of 104%. For the same compound, the residual activity [40] was 105%, the residual activity [41] was 111% and the residual activity [42] was 103%.
